This is an account of results in patent US5919793A, “Heterocyclic derivatives” (Zeneca Limited, priority 1993, dated 1999).

The subject of test [1] is squalene synthase (rat liver microsomal protein). As to the kind of experiment: Inhibition of Squalene synthase (formation of squalene from tritiated farnesyl pyrophosphate). It is filed as biochemical. As to conditions: at 2.5 μM. The protocol: (a) Inhibition of Squalene synthase
In this test, the ability of a compound to prevent the formation of squalene from a radioactive substrate (tritiated farnesyl pyrophosphate) is assessed.
The test compound is incubated at a concentration of 25 micromolar in 200 μl of a buffered solution containing potassium phosphate (50 mM), MgCl2 (4.95 mM), KF (9.9 mM), NADPH (0.9 mM) and rat liver microsomal protein (20 μg). Rat liver microsomes are prepared by the method described in published European Patent Application No. 324,421 and stored in liquid nitrogen prior to assay. Assay vials are kept at 37° C. throughout the incubation.
The reaction is started with the addition of the substrate (1-[^3 H]-farnesyl pyrophosphate), final concentration 20 μM, and stopped after 15 minutes reaction time with the addition of 50 μl of 4% KOH. The reaction products are separated from unreacted substrate after application to a C-18 octadecyl 1 ccBond column (Analytichem Int product No. 617101). An aqueous fraction is eluted with 250 μl of 0.1M KOH. Squalene is then eluted with 1.0 ml 10% ethylacetate in hexane and radioactivity determined. The difference in radioactivity in the presence and absence of the test compound is used to determine the level of inhibition. […] The IC50 can then be determined from a plot of percentage inhibition against concentration of test compound.

In test [2] the test system is de novo hepatic cholesterol synthesis from 14C-acetate. As to the kind of experiment: Acute rat cholesterol synthesis assay. It is filed as in vivo. As to conditions: inhibition of cholesterol synthesis. The method, then:
(b) Acute rat cholesterol synthesis assay.
This is an acute in vivo test in the rat to measure de novo hepatic cholesterol synthesis from exogenously administered ^14 C-acetate.
Female rats (35-55 g) are housed in reverse lighting conditions (red light from 0200 h-1400 h) for a period of about 2 weeks prior to test. Animals are allowed free access to chow and drinking water throughout this period. At test, animals should weigh 125-150 g.
Test compounds may be administered by oral gavage, dissolved or suspended in 0.5% polysorbate, or by ip or iv dosing. Control animals receive vehicle alone. After 1 hour the rats are injected ip with 25 μCi [2-^14 C]-acetate (NEN DUPONT. specific activity, 45-60 mCi/mmol NEC-085H, or AHERSHAM specific activity, 50-60 mCi/mmol CFA 14) in a volume of 0.25 ml saline (100 μCi/ml). After a further hour, rats are terminally anaesthetised with halothane and a blood sample obtained from the abdominal vena cava.
1 ml of plasma is lyophilised and then saponified in 2 ml ethanolic KOH (1 part 33% KOH, 9 parts ethanol) at 75° C. for 2 hours. After addition of an equal quantity of water, non-saponifiable lipids are extracted with two 5 ml volumes of hexane. The hexane extracts are evaporated to dryness and the residues dissolved in ethanol to determine cholesterol specific radioactivity. ED50 values can be determined in the standard way.

On to `COCCOc1cc(C)c(C#CC2(O)CN3CCC2CC3)c(C)c1` (centres unmarked) [Example 16], for which the “inhibition of squalene synthase” value in test [1] is on record as “about 80%”. Moreover, the ED50 in test [2] is roughly 5.1 mg/kg.

What is called ED50 is the dose at which the effect has come halfway, by size or by number of responders.
